Data on 1 compound can be found in ChEMBL document CHEMBL1141400, “Influence of conformation and intramolecular hydrogen bonding on the acyl glucuronidation and biliary excretion of acetylenic bis-dipyrrinones related to bilirubin” (J Med Chem, 2007).

In this data set the test system is Rattus norvegicus. In words: Hepatobiliary metabolism in UGT1A1-deficient Gunn rat measured as biliary excretion at 0.25 mg, iv within 240 mins. Type of data set: ADME, organism-based, Bile. The following applies: in vivo, 4 h.

`CCC1=C(C)C(=O)N/C1=C\c1[nH]c(C#Cc2[nH]c(/C=C3/NC(=O)C(C)=C3CC)c(C)c2CCC(=O)O)c(CCC(=O)O)c1C` returned an Activity of 93%.
